Experimental data: US11826402B2, “Combination therapy involving antibodies against claudin 18.2 for treatment of metastatic pancreatic adenocarcinoma” (Astellas Pharma Inc., priority 2013, dated 2023)

Experiments:
Assay type in all cases: cell-based, human
Kato III cells [1] = test: Cell cycle analysis of gastric cancer cells with cytostatic compounds
Method: Kato III cells, a human gastric tumor cell line, was cultivated in RPMI 1640 medium (Invitrogen) containing 20% FCS (Perbio) and 2 mM Glutamax (Invitrogen) at 37° C. and 5% CO2, with or without cytostatic compounds. 5-FU (Neofluor from NeoCorp AG) was tested at a concentration of 10 or 100 ng/ml, and oxaliplatin (Hospira) was tested at a concentration of 50 or 500 ng/ml. […] Cells were harvested with EDTA/trypsin, washed and analysed.
Cell cycle stages were determined based on measurement of cellular DNA content. This allows one to discriminate between cells in the G1-, S- or G2-phase of the cell cycle. In the S-phase DNA duplication occurs whereas in the G2-phase cells grow and prepare for mitosis. Cell cycle analysis was done using the CycleTEST PLUS DNA Reagent Kit from BD Biosciences following the manufacturer's protocol. Flow cytometry acquisition and analysis were performed by using BD FACS CantoII (BD Biosciences) and FlowJo (Tree Star) software.
Kato III cells were pretreated for 4 days with Irinotecan or Docetaxel and analysed for CLDN18.2 expression and cell cycle arrest.

KATO-III = test: IMAB362-induced ADCC on gastric cancer cells, also after chemotherapy pretreatment; conditions: Kato III pretreated 3 days; Irinotecan 1000 ng/ml, Docetaxel 5 ng/ml, Cisplatin 2000 ng/ml
Method: Peripheral blood mononuclear cells (PBMCs) including NK cells, monocytes, […] or other effector cells from healthy human donors were purified by Ficoll Hypaque density centrifugation. Washed effector cells were seeded in X-Vivo medium. Kato III cells which express CLDN18.2 endogenously and are of gastric origin were used as target cells in this setting. Target cells stably expressed luciferase, lucifer yellow, which is oxidized by viable cells only.

Kato III cells [2] = test: Kato III cells pretreated with cytostatic compounds: cell growth, viable cells, CLDN18.2 expression; conditions: for claudin18.2 expression versus medium cultivated cells / level of viable cells versus medium cultivated cells: Kato III pretreated 3 days, Irinotecan 1000 ng/ml, Docetaxel 5 ng/ml, Cisplatin 2000 ng/ml; for cell growth: Kato III pretreated for 4 days
MiaPaCa-2-LVT = test: Inhibition of proliferation (XTT viability assay, 4 days)
Method: To analyze dose-response curves of each chemotherapeutic agent, a proliferation assay was performed.
Cells were seeded in 96 well plates and after 4-6 hours gemcitabine or oxaliplatin was added in following concentrations: 1000, 500, 250, 100 and 20 ng/ml. The proliferation assay was incubated for 4 days at 37° C. and 5% CO2. 50 μl XTT complete reagent (50 parts XTT+1 part coupl. reagent mixed) was added and incubated at 37° C. Measurement of absorbance (cells plus supernatant) was done with the Tecan Safire after 3 h and 4 h. Inhibition of proliferation was calculated compared to medium values set as 100%. EC50 values for gemcitabine and oxaliplatin were calculated in the GraphPad Prism program.

Row | SMILES | cell cycle effect (Kato III cells [1]) | effect of pretreatment on IMAB362 induced ADCC (KATO-III) | claudin18.2 expression versus medium cultivated cells (Kato III cells [2]) | level of viable cells versus medium cultivated cells (Kato III cells [2]) | cell growth (Kato III cells [2]) | sensitivity of cells to the agent (MiaPaCa-2-LVT)
1 | O=c1[nH]cc(F)c(=O)[nH]1 [5-FU, 5-fluoro-1H-pyrimidine-2,4-dione] | blocked predominantly in the S-phase | – | – | – | – | –
2 | N.N.[Cl][Pt][Cl] [Cisplatin, cis-diaminedichloroplatinum(II)] | – | augments the potency of IMAB362 to induce ADCC | increased | lower level of viable cells | – | –
3 | CC(=O)O[C@@]12CO[C@@H]1C[C@H](O)[C@@]1(C)C(=O)[C@H](O)C3=C(C)[C@@H](OC(=O)[C@H](O)[C@@H](NC(=O)OC(C)(C)C)c4ccccc4)C[C@@](O)([C@@H](OC(=O)c4ccccc4)[C@H]21)C3(C)C [Docetaxel, 1,7β,10β-trihydroxy-9-oxo-5β,20-epoxytax-11-ene-2α,4,13α-triyl 4-acetate 2-benzoate 13-{(2R,3S)-3-[(tert-butoxycarbonyl)-amino]-2-hydroxy-3-phenylpropanoate}] | cell cycle arrest in the G2-phase | augments the potency of IMAB362 to induce ADCC | increased | lower level of viable cells | dose dependent inhibition of cell growth | –
4 | CCc1c2c(nc3ccc(OC(=O)N4CCC(N5CCCCC5)CC4)cc13)-c1cc3c(c(=O)n1C2)COC(=O)[C@]3(O)CC [Irinotecan, (S)-4,11-diethyl-3,4,12,14-tetrahydro-4-hydroxy-3,14-dioxo1H-pyrano[3′,4′:6,7]-indolizino[1,2-b]quinolin-9-yl-[1,4′-bipiperidine]-1′-carboxylate] | cell cycle arrest in the S/G2-phase | augments the potency of IMAB362 to induce ADCC | increased | lower level of viable cells | dose dependent inhibition of cell growth | –
5 | O=C1[O][Pt]2([NH][C@@H]3CCCC[C@H]3[NH]2)[O]C1=O [oxaliplatin, [(1R,2R)-cyclohexane-1,2-diamine](ethanedioato-O,O′)platinum(II)] | – | – | – | – | – | most sensitive
